This is an account of results in US10544149B2, “Bicyclic alkyne derivatives and uses thereof” (Agency for Science, Technology and Research, priority 2013, dated 2020).

The subject of data set [1] is eIF4e phosphorylation in Hela cell line. Briefly: eIF4e phosphorylation inhibition in Hela cell line. It counts as cell-based. Conditions: Homo sapiens, cellular.
The next data set deals with MNK2 (Homo sapiens, UniProt Q9HBH9). Kind of data set: MNK2 enzymatic assay. It counts as biochemical.
The next data set has as its target MNK1 (Homo sapiens, UniProt Q9BUB5). Briefly: MNK1 enzymatic assay. Format: biochemical.
Data set [2] has as its system TNF production by macrophage. Conditions: TLR agonist stimulation, dose dependant; cited from earlier work.

MNK1, sequence (Q9BUB5 whole entry): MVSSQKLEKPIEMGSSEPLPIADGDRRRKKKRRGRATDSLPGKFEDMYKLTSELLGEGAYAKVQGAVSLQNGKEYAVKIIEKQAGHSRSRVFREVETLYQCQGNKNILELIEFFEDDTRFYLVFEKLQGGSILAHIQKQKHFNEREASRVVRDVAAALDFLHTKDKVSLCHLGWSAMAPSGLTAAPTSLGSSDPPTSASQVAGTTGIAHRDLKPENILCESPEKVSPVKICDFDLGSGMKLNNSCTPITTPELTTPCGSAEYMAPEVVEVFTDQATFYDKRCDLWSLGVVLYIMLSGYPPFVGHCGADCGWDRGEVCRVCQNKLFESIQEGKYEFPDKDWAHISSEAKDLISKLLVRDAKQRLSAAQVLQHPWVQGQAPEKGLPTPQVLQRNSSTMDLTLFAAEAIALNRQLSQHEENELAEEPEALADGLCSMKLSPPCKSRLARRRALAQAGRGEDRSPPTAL
MNK2, sequence (Q9HBH9 whole entry): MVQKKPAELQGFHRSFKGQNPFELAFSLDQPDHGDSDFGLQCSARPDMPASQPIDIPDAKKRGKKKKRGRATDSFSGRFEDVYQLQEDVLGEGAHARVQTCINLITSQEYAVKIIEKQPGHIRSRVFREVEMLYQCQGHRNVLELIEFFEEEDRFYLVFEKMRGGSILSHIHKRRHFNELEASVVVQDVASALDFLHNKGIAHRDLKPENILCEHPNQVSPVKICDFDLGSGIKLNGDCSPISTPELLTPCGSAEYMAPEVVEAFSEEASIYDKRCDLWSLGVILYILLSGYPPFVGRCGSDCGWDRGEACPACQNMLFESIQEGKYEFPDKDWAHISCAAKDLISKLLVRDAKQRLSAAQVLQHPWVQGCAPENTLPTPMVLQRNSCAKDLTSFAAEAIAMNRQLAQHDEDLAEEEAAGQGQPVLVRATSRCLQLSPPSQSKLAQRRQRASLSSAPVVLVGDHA

With `O=C(c1ccc(-c2ccn3ncc(C#Cc4ccncc4)c3n2)cc1)N1CCNCC1` [Example 115, piperazin-1-yl(4-(3-(pyridin-4-ylethynyl)pyrazolo[1,5-a]pyrimidin-5-yl)phenyl)methanone], the melting point (in general, the temperature of the solid-liquid transition) fell in the range of 120 to 136 °C. Further, in data set [1], the IC50 (commonly the concentration at which inhibition is half-maximal) was below 5 µM. Besides, the IC50 at MNK2 is below 0.5 µM. At MNK1, the IC50 is below 0.5 µM.

Take `Nc1ncc(C#Cc2cnc3ccc(-c4ccc(C(=O)N5CCOCC5)cc4)nn23)s1` [Example 121, (4-(3-((2-aminothiazol-5-yl)ethynyl)imidazo[1,2-b]pyridazin-6-yl)phenyl) (morpholino)methanone]: the melting point lay in the range of 245 to 254 °C. Further, the IC50 in data set [1] was below 5 µM. The IC50 against MNK2 was below 0.5 µM. Moreover, the IC50 against MNK1 was below 0.5 µM.

Compound `O=C(c1ccc(-c2ccn3ncc(C#Cc4ccncc4)c3n2)cc1)N1CCOCC1` [Example 114, morpholino(4-(3-(pyridin-4-ylethynyl)pyrazolo[1,5-a]pyrimidin-5-yl)phenyl)methanone] showed a melting point of 206 to 209 °C. In addition, the IC50 in data set [1] is below 5 µM. Besides, at MNK2, the IC50 is below 0.5 µM. Further, the IC50 at MNK1 was below 0.5 µM.

Regarding `O=C(c1ccc(-c2ccc3ncc(C#Cc4ccnc5[nH]ccc45)n3c2)cc1)N1CCNCC1` [Example 110, (4-(3-((1H-pyrrolo[2,3-b]pyridin-4-yl)ethynyl)imidazo[1,2-a]pyridin-6-yl)phenyl)(piperazin-1-yl)methanone], the melting point lay in the range of 242 to 245 °C. Besides, in data set [1], the IC50 is below 5 µM. At MNK2, this compound showed an IC50 below 0.5 µM. Also, the IC50 at MNK1 was below 0.5 µM.

Consider `Nc1ncnc2n[nH]c(Nc3ccc(F)cc3)c12` [CGP57380], for which, in data set [2], the “production / release of TNF” value was “inhibits”.

`O=C(c1ccc(-c2ccc3ncc(C#Cc4ccncc4)n3c2)cc1)N1CCNCC1` [Example 109, piperazin-1-yl(4-(3-(pyridin-4-ylethynyl)imidazo[1,2-a]pyridin-6-yl)phenyl)methanone] had a melting point of 125 to 130 °C. In data set [1], the IC50 is below 5 µM. Besides, the IC50 against MNK2 is below 0.5 µM. For the same compound, the IC50 on MNK1 is below 0.5 µM.
